From article PMC7316994, “In Vitro Pharmacological Profile of a New Small Molecule Bradykinin B2 Receptor Antagonist” (Frontiers in Pharmacology, 2020)
Like-named read-outs stand apart in the source and are kept apart here.

Assays:
[1] = tested on: Benzodiazepine BZD (central); assay: radioligand binding (Table S2); conditions: [3H] Flunitrazepam, Rat cerebral cortex
mouse B2 receptor = target: T1, mouse B2 receptor (Mus musculus, UniProt P32299); assay: Ca^2+ mobilization assay, HEK293T cells; type: cell-based; conditions: BK at EC80 0.53 nM, n=1
T1 construct: host or cells: HEK293T cells
T1 sequence (P32299 1-392): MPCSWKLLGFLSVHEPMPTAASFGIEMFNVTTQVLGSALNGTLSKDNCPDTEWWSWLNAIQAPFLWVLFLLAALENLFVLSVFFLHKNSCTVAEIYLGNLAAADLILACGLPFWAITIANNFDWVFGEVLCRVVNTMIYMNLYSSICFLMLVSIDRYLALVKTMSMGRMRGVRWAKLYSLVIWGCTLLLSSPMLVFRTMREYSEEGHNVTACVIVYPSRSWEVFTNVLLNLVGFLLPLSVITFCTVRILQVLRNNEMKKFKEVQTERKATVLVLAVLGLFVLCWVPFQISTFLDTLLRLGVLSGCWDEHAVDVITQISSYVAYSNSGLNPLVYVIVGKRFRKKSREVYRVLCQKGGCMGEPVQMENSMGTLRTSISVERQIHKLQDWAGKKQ

Muscarinic M3 = Muscarinic M3 (Homo sapiens, UniProt P20309); assay: radioligand binding (Table S2); conditions: read-out: % Inhibition @ 10 µM
PKCα = PKCα (Homo sapiens, UniProt P17252); assay: enzyme assay (Table S2); type: biochemical; conditions: HTRF
Chemokine CXCR4 = Chemokine CXCR4 (Homo sapiens, UniProt P61073); assay: radioligand binding (Table S2); conditions: [125I] SDF-1α, Human recombinant Chem-1 cells
Neurokinin NK1 = Neurokinin NK1 (Homo sapiens, UniProt P25103); type: cell-based
Lck kinase = Lck kinase (Homo sapiens, UniProt P06239); assay: enzyme assay (Table S2); type: biochemical; conditions: ATP + Ulight-PolyGAT (25 nM), LANCE
TP (TXA2/PGH2) = target: T2, TP (TXA2/PGH2) (Homo sapiens, UniProt P21731); assay: functional assay, intracellular [Ca2+], HEK-293 cells (Table S2); type: cell-based; conditions: for inhibition at 10 µM: HEK293, read-out: % inhibition of reference agonist response @ 10 µM (antagonist effect), 10 µM, U 44069 (10 nM)
T2 construct: expressed in transfected cells; host or cells: HEK-293 cells
T2 sequence (P21731 1-343): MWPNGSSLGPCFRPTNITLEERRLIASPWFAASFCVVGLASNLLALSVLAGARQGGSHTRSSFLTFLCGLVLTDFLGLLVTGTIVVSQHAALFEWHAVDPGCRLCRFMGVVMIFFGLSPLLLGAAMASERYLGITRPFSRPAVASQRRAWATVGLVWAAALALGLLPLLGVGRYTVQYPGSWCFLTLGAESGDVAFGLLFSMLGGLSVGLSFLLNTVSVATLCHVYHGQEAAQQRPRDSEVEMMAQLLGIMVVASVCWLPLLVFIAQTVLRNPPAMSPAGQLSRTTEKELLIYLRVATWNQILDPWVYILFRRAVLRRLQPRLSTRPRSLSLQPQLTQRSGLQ

B2 receptor [2] = target: T3, B2 receptor (Homo sapiens, UniProt P30411); assay: reversibility of antagonism after washout, umbilical vein; conditions: for EC50: BK EC50 (nM)
T3 sequence (P30411 1-391): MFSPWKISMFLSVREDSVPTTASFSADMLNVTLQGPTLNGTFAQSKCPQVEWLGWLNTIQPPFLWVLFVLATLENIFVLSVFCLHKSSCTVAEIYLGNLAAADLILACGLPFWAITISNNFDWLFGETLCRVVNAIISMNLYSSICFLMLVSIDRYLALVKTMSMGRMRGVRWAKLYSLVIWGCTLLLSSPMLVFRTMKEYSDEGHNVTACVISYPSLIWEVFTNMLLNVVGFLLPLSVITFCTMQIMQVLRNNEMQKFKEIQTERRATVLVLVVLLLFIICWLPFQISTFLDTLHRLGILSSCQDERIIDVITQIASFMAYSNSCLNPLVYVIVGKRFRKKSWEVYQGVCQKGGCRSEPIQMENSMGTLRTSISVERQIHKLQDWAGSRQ

B2 receptor [3] = target: T3, B2 receptor; assay: [^3H]BK competition binding assay, CHO cell membranes; design: host or cells: CHO cells; conditions: competition with 0.3 nM [^3H]BK
COX2 = target: T4, COX2 (Homo sapiens, UniProt P35354); assay: enzyme assay (Table S2); type: biochemical; conditions: Arachidonic acid (2 µM) + ADHP, Fluorimetry
T4 construct: Eurofins (assay provider); host or cells: Sf9 cells

[4] = target: T5, Vasoactive intestinal peptide VPAC1 (VIP1) (Homo sapiens, UniProt P32241); assay: radioligand binding (Table S2); conditions: [125I] VIP, Human recombinant CHO cells
T5 construct: host or cells: CHO cells

Somatostatin sst5 = Somatostatin sst5 (Homo sapiens, UniProt P35346); assay: radioligand binding (Table S2); conditions: [125I] Tyr11-Somatostatin 14, Human recombinant Chem-1 cells
PDGFRβ kinase = target: T6, PDGFRβ kinase (Homo sapiens, UniProt P09619); assay: enzyme assay (Table S2); type: biochemical; conditions: ATP + Ulight-PolyGAT (25 nM), LANCE
T6 construct: host or cells: insect cells

[5] = target: T7, Cysteinyl leukotriene receptor CysLT1 (Homo sapiens, UniProt Q9Y271); assay: radioligand binding (Table S2); conditions: [3H] LTD4, Human recombinant CHO cells
T7 construct: host or cells: CHO cells

Caco-2 cell monolayer = conditions: human, Caco-2, 60 min, 10 µM
Muscarinic M5 = Muscarinic M5 (Homo sapiens, UniProt P08912); assay: radioligand binding (Table S2); conditions: read-out: % Inhibition @ 10 µM
Serotonin 5-HT7 = target: T8, Serotonin 5-HT7 (Homo sapiens, UniProt P34969); assay: radioligand binding (Table S2); conditions: [3H] LSD, Human recombinant CHO cells
T8 construct: host or cells: CHO cells
T8 sequence (P34969 whole entry): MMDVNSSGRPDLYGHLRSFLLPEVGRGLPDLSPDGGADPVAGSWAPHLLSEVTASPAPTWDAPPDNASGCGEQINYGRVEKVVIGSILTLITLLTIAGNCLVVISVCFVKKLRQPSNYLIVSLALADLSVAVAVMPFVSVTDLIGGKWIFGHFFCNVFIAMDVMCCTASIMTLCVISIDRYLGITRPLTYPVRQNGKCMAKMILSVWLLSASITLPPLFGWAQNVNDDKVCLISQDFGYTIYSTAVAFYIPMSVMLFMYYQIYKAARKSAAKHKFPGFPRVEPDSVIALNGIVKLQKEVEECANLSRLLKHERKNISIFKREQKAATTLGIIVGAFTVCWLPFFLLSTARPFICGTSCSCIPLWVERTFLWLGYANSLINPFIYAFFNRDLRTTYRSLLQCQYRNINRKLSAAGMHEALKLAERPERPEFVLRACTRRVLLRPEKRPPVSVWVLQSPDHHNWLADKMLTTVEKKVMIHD

Chain of Neurokinin NK1 (P25103 whole entry): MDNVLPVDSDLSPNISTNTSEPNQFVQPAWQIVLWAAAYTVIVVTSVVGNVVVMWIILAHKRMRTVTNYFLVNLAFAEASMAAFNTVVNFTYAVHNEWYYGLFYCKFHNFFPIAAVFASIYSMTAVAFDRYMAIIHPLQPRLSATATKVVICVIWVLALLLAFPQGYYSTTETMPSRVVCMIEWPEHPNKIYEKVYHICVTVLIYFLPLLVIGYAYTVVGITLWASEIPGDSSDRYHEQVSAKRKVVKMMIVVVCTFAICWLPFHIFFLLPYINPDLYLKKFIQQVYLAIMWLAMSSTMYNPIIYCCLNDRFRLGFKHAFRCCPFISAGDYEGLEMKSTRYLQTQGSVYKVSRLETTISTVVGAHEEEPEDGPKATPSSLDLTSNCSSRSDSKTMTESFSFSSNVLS
T7 sequence (Q9Y271 whole entry): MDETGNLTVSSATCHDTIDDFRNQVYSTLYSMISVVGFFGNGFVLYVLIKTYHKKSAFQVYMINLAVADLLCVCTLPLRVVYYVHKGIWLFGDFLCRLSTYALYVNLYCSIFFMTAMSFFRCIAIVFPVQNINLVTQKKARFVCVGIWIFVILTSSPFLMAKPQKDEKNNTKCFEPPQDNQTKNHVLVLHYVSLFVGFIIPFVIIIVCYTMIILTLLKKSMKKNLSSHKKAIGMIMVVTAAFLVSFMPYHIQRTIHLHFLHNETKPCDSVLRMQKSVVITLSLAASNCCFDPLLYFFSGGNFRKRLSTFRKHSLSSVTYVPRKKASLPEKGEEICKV
T6 sequence (P09619 33-1106): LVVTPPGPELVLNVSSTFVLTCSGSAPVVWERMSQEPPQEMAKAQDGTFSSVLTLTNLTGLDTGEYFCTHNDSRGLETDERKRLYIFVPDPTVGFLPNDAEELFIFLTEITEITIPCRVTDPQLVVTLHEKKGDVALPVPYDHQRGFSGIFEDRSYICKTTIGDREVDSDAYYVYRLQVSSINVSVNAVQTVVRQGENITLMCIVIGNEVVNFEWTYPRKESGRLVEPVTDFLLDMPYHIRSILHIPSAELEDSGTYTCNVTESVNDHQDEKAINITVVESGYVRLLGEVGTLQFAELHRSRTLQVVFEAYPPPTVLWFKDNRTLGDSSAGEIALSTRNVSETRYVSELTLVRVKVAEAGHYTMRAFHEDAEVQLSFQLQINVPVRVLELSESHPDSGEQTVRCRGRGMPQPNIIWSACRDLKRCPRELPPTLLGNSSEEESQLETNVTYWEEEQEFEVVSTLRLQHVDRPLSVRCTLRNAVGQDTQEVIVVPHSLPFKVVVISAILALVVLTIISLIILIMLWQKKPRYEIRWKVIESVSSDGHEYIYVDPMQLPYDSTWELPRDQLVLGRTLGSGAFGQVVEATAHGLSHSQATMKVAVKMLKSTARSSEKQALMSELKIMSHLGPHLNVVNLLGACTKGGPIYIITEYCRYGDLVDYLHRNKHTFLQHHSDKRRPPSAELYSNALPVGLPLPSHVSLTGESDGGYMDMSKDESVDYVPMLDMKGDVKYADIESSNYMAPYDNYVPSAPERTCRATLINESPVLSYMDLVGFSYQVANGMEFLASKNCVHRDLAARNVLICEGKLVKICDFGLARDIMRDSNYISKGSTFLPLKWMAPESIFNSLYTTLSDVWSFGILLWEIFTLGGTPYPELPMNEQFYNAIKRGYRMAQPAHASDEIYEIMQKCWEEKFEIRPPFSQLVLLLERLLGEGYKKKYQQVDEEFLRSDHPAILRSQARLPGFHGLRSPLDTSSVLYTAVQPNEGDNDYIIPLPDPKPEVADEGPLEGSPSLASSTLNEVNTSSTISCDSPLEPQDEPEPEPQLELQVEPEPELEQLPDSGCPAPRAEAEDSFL
Chain of Somatostatin sst5 (P35346 whole entry): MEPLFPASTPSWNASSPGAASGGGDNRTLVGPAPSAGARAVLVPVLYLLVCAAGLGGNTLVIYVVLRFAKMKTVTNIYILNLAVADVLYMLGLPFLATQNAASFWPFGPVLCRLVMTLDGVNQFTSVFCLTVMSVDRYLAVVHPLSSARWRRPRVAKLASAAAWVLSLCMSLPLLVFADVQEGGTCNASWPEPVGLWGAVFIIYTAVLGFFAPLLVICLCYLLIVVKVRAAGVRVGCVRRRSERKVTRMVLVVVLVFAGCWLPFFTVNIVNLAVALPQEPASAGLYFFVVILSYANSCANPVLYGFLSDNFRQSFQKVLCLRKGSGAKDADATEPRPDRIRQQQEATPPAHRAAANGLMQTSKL
T5 sequence (P32241 31-457): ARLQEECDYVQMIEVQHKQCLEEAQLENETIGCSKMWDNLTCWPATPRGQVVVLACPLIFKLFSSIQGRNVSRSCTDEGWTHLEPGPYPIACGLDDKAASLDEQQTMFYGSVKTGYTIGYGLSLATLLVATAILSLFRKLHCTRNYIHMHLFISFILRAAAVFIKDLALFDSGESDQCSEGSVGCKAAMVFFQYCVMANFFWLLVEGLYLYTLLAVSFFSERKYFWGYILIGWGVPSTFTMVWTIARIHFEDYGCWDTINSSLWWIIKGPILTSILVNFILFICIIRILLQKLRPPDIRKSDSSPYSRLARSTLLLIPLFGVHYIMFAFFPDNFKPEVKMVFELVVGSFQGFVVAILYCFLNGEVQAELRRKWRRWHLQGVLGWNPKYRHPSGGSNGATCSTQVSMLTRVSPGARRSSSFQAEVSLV
Chain of Chemokine CXCR4 (P61073 whole entry): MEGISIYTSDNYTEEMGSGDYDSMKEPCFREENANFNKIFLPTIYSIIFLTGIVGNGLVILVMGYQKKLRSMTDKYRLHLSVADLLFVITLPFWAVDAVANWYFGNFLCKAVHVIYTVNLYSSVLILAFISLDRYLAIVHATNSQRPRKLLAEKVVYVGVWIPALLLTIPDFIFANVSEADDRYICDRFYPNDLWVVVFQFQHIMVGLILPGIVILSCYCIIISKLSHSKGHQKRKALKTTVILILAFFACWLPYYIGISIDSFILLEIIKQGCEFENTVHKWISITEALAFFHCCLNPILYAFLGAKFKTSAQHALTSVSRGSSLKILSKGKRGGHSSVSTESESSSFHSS
Chain of Muscarinic M3 (P20309 whole entry): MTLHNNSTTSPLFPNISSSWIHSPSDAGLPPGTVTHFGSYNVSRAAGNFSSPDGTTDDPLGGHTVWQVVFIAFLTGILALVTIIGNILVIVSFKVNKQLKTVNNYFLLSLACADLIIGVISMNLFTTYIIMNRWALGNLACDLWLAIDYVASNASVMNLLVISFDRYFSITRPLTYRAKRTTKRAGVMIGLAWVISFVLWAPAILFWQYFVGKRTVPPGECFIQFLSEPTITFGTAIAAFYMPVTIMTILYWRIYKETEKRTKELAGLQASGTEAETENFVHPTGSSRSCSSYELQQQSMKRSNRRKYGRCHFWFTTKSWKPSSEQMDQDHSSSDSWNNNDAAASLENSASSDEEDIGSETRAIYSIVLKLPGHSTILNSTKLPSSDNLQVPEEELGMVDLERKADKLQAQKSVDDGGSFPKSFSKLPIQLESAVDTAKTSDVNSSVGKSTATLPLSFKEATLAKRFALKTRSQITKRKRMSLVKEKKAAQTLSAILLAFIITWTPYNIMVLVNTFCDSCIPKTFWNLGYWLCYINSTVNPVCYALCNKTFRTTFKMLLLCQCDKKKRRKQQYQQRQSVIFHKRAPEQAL

For `Cc1cc(-c2ncnn2C)c2cccc(OCc3c(Cl)cc(F)cc3[C@H](C)NC(=O)COC(F)F)c2n1` [Compound 3, (S)-N-(1-(3-chloro-5-fluoro-2-((2-methyl-4-(1-methyl-1H-1,2,4-triazol-5-yl)quinolin-8-yloxy)methyl)phenyl)ethyl)-2-(difluoromethoxy)acetamide], the “% Inhibition @ 10 µM” value [1] was -25.8%, the IC50 (mouse B2 receptor) was roughly 1200 nM and the Kb (mouse B2 receptor) was roughly 350 nM. For the same molecule, the inhibition at 10 µM (Muscarinic M3) was 4.2%, the inhibition at 10 µM (PKCα) was 1.4% and the inhibition at 10 µM (Chemokine CXCR4) was 10%. For the same molecule, the “% of reference agonist response @ 10 µM (agonist effect)” value (Neurokinin NK1; 10 µM, reference [Sar9,Met(O2)11]-SP (30 nM)) was -5.2%, the IC50 (Neurokinin NK1; [Sar9,Met(O2)11]-SP (1 nM), read-out: IC50 (µM), functional antagonism) was 17 µM and the Kb (Neurokinin NK1; [Sar9,Met(O2)11]-SP (1 nM), read-out: Kb (µM), functional antagonism) was 2.4 µM. For the same molecule, the inhibition at 10 µM (Lck kinase) was 9.5%, the IC50 (TP (TXA2/PGH2)) was 3600 nM and the Kb (TP (TXA2/PGH2)) was 510 nM. For the same molecule, the “% of reference agonist response @ 10 µM (agonist effect)” value (TP (TXA2/PGH2); 10 µM, reference U 44069 (0.3 µM)) was -2.8%, the inhibition at 10 µM (TP (TXA2/PGH2); first entry of Table S2, single concentration) was 62.3% and the inhibition at 10 µM (TP (TXA2/PGH2); second entry of Table S2, with IC50 and KB) was 55.1%. The “reversibility of antagonism after washout” value (B2 receptor [2]; 100 nM) was “partial or slow reversibility”, the “reversibility of antagonism after washout” value (B2 receptor [2]; 1 and 10 nM) was “fully reversible” and the EC50 (B2 receptor [2]; after washout, 5 h, washout after Compound 3 1 nM, 5 h, vehicle washout 20.8 nM) was 22 nM. It also gave an EC50 (B2 receptor [2]; after washout, 5 h, washout after Compound 3 10 nM, 5 h, vehicle washout 20.8 nM) of 38.5 nM, an EC50 (B2 receptor [2]; after washout, 5 h, washout after Compound 3 100 nM, 5 h, vehicle washout 11.7 nM) of 84.1 nM and an EC50 (B2 receptor [2]; antagonist present, 3 h, Compound 3 1 nM, vehicle 3 h 18.7 nM) of 67.4 nM. The EC50 (B2 receptor [2]; antagonist present, 3 h, Compound 3 10 nM, vehicle 3 h 18.7 nM) was 225 nM, the EC50 (B2 receptor [2]; antagonist present, 3 h, Compound 3 100 nM, vehicle 3 h 7.5 nM) was 713 nM and the IC50 (B2 receptor [3]; arithmetic mean, read-out: IC50 (nM) Mean) was 0.97 nM. The Ki (B2 receptor [3]; arithmetic mean, read-out: Ki (nM) Mean) was 0.5 nM, the IC50 (B2 receptor [3]; geometric mean, read-out: IC50 (nM) Geometric mean) was 0.97 nM and the Ki (B2 receptor [3]; geometric mean, read-out: Ki (nM) Geometric mean) was 0.5 nM. It also gave an inhibition at 10 µM (COX2) of -18.8%, an inhibition at 10 µM [4] of 0.8% and an inhibition at 10 µM (Somatostatin sst5) of 2%. The inhibition at 10 µM (PDGFRβ kinase) was -1%, the inhibition at 10 µM [5] was -2.2% and the “Caco-2 AB, apparent permeation rate apical to basolateral direction” value (Caco-2 cell monolayer) was > 10^-5 cm/s. The inhibition at 10 µM (Muscarinic M5) was 5.1% and the inhibition at 10 µM (Serotonin 5-HT7) was 3.3%.
